Structures can show the parent of a compound that is named as a salt. Where two headings read alike, the source gives them in different places. One block for each compound: values may come before it.
What was measured:
HDAC6 = HDAC6 (Homo sapiens (Human), UniProt Q9UBN7); assay: HDAC in vitro enzymatic assay (fluorescence); assay type: biochemical; conditions: top concentration 2 μM
Method: Biological Tests Method for Measurement of Enzymatic Activity of HDACs Materials & Methods
All Examples were tested in HDAC1, 2, 3, 6 and 8 in vitro enzymatic assays. The assay principle is well known (Hauser et al. 2009, Bradner et al. 2010) and all necessary reagents like enzymes, substrates, developer and reference compounds are commercially available (see e.g. BPS Biosciences http://www.bpsbioscience.com/). A series of dilutions of the compounds were prepared with a top concentration of 200 μM (2 μM for HDAC6). The enzymatic reactions were conducted in a mixture containing assay buffer, bovine serum albumin, HDAC substrate, and a test compound. After enzymatic reaction, developer was added and after an additional incubation time, fluorescence intensity was measured at an excitation wavelength of 360 nm and an emission wavelength of 460 nm. A selection of the Examples were tested in a full HDAC panel containing HDAC1, 2, 3, 4, 5, 6, 7, 8, 9, 10 and 11 in vitro enzymatic assays. The tests were performed as above except that a series of dilutions of the compounds were prepared with a top concentration of 10 μM for all HDACs.

HDAC2 = HDAC2 (Homo sapiens (Human), UniProt Q92769); assay: HDAC in vitro enzymatic assay (fluorescence); conditions: read-out: IC50 HDAC2; selectivity profiling; top concentration 200 μM
HDAC8 = HDAC8 (Homo sapiens (Human), UniProt Q9BY41); assay: HDAC in vitro enzymatic assay (fluorescence); conditions: read-out: IC50 HDAC8; selectivity profiling; top concentration 200 μM
HDAC3 = HDAC3 (Homo sapiens (Human), UniProt O15379); assay: HDAC in vitro enzymatic assay (fluorescence); conditions: read-out: IC50 HDAC3; selectivity profiling; top concentration 200 μM
HDAC1 = HDAC1 (Homo sapiens (Human), UniProt Q13547); assay: HDAC in vitro enzymatic assay (fluorescence); conditions: read-out: IC50 HDAC1; selectivity profiling; top concentration 200 μM
AMO-1 (plasmacytom) = assay: CellTiter-Blue cell viability assay; assay type: cell-based; conditions: Homo sapiens, AMO1; AMO-1 cells, 72 hours of treatment; read-out: IC50 AMO-1 (cell viability)
Method: (§1) Method for Measurement of Cell Viability
(§2) The CellTiter-Blue® Cell Viability Assay (Promega) provides a homogeneous, fluorometric method for estimating the number of viable cells present in multi-well plates. The assay uses the indicator dye resazurin to measure the metabolic capacity of cells. Viable cells retain the ability to reduce resazurin into resorufin, which is highly fluorescent.
(§3) Stock solutions (10 mM in DMSO) of compounds were serially diluted 1:2 in 11 concentrations. 50 nL/well (10 mM compound stock in DMSO) was acoustically dispensed in 384-well assay plates with an acoustic dispenser (EDC Biosystems ATS-100AV). Final starting concentration in the assay was 20 μM (0.2% DMSO) for test compounds. […] After 72 hours, Celltiter Blue reagent (Promega #G8081) was diluted 1:10 with PBS and then added to wells (5 μL/well). The plates were incubated for 2 hours following addition of reagent. […] Results were calculated as % cell viability compared to background (cells treated with 0.2% DMSO).

[1] = tested on: PBMC (peripheral blood mononuclear cells from healthy donors); assay: CellTiter-Blue cell viability assay; assay type: cell-based; conditions: healthy PBMC, 72 hours of treatment; read-out: IC50 healthy PBMC (cell viability)
Method: as §1, §2, §3

U266 (multiple myelom) = assay: CellTiter-Blue cell viability assay; assay type: cell-based; conditions: Homo sapiens, U-266; U266 cells, 72 hours of treatment; read-out: IC50 U266 (cell viability)
Method: as §1, §2, §3

[2] = read-out: IC50 values for inhibition of HDAC6
[3] = selectivity profiling, read-out: IC50 HDAC6

HDAC8, sequence (Q9BY41 whole entry): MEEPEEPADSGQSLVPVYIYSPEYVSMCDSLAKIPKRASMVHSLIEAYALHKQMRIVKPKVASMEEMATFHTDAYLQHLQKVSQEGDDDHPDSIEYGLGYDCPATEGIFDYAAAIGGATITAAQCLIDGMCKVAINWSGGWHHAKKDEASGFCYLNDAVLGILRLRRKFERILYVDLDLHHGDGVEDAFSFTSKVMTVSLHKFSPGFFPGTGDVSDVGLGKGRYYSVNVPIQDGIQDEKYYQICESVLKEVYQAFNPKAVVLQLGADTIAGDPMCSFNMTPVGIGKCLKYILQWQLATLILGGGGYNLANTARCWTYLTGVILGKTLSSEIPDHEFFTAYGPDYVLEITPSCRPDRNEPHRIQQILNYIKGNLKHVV
HDAC1, sequence (Q13547 whole entry): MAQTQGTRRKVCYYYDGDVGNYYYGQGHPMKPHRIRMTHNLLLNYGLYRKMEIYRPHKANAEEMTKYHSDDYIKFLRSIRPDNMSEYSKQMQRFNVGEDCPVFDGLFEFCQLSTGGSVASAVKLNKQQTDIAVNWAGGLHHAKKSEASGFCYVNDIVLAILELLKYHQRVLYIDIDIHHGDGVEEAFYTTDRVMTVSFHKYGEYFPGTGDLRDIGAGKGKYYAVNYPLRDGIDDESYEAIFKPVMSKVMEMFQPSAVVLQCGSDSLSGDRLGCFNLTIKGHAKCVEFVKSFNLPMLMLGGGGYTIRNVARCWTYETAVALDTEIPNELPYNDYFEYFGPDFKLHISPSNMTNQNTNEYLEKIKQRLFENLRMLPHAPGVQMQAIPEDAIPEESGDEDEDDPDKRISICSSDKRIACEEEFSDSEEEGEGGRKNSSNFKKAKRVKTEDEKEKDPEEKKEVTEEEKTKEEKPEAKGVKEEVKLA
HDAC3, sequence (O15379 whole entry): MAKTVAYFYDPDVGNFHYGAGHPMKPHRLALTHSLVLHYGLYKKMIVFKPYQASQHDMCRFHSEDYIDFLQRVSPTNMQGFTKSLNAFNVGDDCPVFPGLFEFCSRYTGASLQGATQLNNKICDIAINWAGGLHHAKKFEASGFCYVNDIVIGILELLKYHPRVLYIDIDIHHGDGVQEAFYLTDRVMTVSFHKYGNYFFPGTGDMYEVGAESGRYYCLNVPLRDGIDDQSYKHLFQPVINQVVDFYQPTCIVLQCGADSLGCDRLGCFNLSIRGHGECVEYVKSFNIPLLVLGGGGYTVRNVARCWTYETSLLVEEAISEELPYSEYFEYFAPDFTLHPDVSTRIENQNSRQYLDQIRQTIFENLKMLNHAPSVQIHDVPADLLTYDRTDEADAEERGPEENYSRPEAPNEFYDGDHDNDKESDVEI
HDAC3, sequence (Q9Y618 395-489 partner): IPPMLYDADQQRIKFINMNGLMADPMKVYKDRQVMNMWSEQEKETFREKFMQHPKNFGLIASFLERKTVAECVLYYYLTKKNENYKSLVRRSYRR
HDAC2, sequence (Q92769 whole entry): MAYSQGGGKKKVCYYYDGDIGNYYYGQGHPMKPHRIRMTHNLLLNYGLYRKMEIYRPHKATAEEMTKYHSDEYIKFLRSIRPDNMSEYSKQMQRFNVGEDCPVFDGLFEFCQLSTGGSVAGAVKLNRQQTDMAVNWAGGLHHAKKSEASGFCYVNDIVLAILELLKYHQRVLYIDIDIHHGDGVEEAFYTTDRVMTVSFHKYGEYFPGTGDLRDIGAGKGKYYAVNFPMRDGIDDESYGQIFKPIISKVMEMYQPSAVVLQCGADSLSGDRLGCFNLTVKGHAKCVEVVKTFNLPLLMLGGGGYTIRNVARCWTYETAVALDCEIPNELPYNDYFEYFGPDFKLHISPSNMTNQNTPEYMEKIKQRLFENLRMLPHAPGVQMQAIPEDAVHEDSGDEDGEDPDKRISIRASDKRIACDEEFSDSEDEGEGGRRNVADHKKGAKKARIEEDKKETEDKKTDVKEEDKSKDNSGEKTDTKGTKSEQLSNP

- IC50 (HDAC6; [2]): 0.0036 µM
Structure (SMILES): O=C(NO)c1ccc2nc(-c3ccc(-c4ccc(CN5CCCC5)cc4)cc3)[nH]c2c1 [Example 197, N-hydroxy-2-[4′-(pyrrolidin-1-ylmethyl)biphenyl-4-yl]-1H-benzimidazole-6-carboxamide trifluoroacetate]

- IC50 (HDAC6; [2]): 0.018 µM
Structure (SMILES): O=C(NO)c1ccc2nc(-c3cccc(OCCOc4ccccc4)c3)[nH]c2c1 [Example 134, N-hydroxy-2-[3-(2-phenoxyethoxy)phenyl]-1H-benzimidazole-6-carboxamide]

- IC50 (HDAC6; [2]): 0.0031 µM
Structure (SMILES): O=C(NO)c1ccc2nc(-c3ccc(-c4ccccc4)s3)[nH]c2c1 [Example 179, N-hydroxy-2-(5-phenylthiophen-2-yl)-1H-benzimidazole-6-carboxamide]

- IC50 (HDAC6; [2]): 0.0072 µM
Structure (SMILES): CS(=O)(=O)Nc1ccc(-c2ccc(-c3nc4ccc(C(=O)NO)cc4[nH]3)cc2)cc1 [Example 204, N-hydroxy-2-{4′-[(methylsulfonyl)amino]biphenyl-4-yl}-1H-benzimidazole-6-carboxamide]

- IC50 (HDAC6; [2]): 0.019 µM
- IC50 (U266 (multiple myelom)): 0.16 µM
Structure (SMILES): O=C(NO)c1ccc2nc(-c3ccc(-c4ccccc4F)cc3)[nH]c2c1 [Example 167, 2-(2′-fluorobiphenyl-4-yl)-N-hydroxy-1H-benzimidazole-6-carboxamide]
- IC50 (AMO-1 (plasmacytom)): 0.14 µM
- IC50 [1]: > 20 µM

- IC50 (HDAC6; [2]): 0.018 µM
Structure (SMILES): COCCCNCc1ccc(-c2ccc(-c3nc4ccc(C(=O)NO)cc4[nH]3)cc2)cc1 [Example 191, N-hydroxy-2-(4′-{[(3-methoxypropyl)amino]methyl}biphenyl-4-yl)-1H-benzimidazole-6-carboxamide trifluoroacetate]

- IC50 (HDAC6; [2]): 0.019 µM
Structure (SMILES): C#Cc1ccc(-c2nc3ccc(C(=O)NO)cc3[nH]2)cc1 [Example 80, 2-(4-ethynylphenyl)-N-hydroxy-1H-benzimidazole-6-carboxamide]

- IC50 (HDAC6; [2]): 0.015 µM
Structure (SMILES): Cn1c(-c2nc3ccc(C(=O)NO)cc3[nH]2)cc2ccccc21 [Example 112, N-hydroxy-2-(1-methyl-1H-indol-2-yl)-1H-benzimidazole-6-carboxamide]

- IC50 (HDAC6; [2]): 0.013 µM
Structure (SMILES): C[C@@H]1CN(Cc2ccc(-c3ccc(-c4nc5ccc(C(=O)NO)cc5[nH]4)cc3)cc2)C[C@H](C)O1 [Example 201, 2-(4′-{cis)-2,6-dimethylmorpholin-4-yl]methyl}biphenyl-4-yl)-N-hydroxy-1H-benzimidazole-6-carboxamide trifluoroacetate]

- IC50 (U266 (multiple myelom)): 0.56 µM
Structure (SMILES): O=C(NO)c1ccc2nc(-c3ccc(-c4ccccc4)c(F)c3)[nH]c2c1 [Example 180, 2-(2-fluorobiphenyl-4-yl)-N-hydroxy-1H-benzimidazole-6-carboxamide]
- IC50 (AMO-1 (plasmacytom)): 0.42 µM
- IC50 [1]: > 20 µM

- IC50 (HDAC6; [2]): 0.014 µM
Structure (SMILES): O=C(NO)c1ccc2nc(-c3ccnc4ccccc34)[nH]c2c1 [Example 66, N-hydroxy-2-quinolin-4-yl-1H-benzimidazole-6-carboxamide trifluoroacetate]

- IC50 (HDAC6; [2]): 0.0029 µM
Structure (SMILES): O=C(NO)c1ccc2nc(-c3ccc(-c4ccccc4F)s3)[nH]c2c1 [Example 176, 2-[5-(2-fluorophenyl)thiophen-2-yl]-N-hydroxy-1H-benzimidazole-6-carboxamide]

- IC50 (HDAC6; [2]): 0.0041 µM
Structure (SMILES): O=C(NO)c1ccc2nc(-c3ccc(-c4cccc(CN5CCCCC5)c4)cc3)[nH]c2c1 [Example 186, N-hydroxy-2-[3′-(piperidin-1-ylmethyl)biphenyl-4-yl]-1H-benzimidazole-6-carboxamide trifluoroacetate]

- IC50 (HDAC6; [2]): 0.0066 µM
Structure (SMILES): COc1ccc(Oc2cccc(-c3nc4ccc(C(=O)NO)cc4[nH]3)c2)cc1 [Example 113, N-hydroxy-2-[3-(4-methoxyphenoxy)phenyl]-1H-benzimidazole-6-carboxamide]

- IC50 (HDAC6; [2]): 0.024 µM
Structure (SMILES): CN(C)C(=O)c1cccc(-c2ccc(-c3nc4ccc(C(=O)NO)cc4[nH]3)cc2)c1 [Example 195, 2-[3′-(dimethylcarbamoyl)biphenyl-4-yl]-N-hydroxy-1H-benzimidazole-6-carboxamide]

- IC50 (HDAC6; [2]): 0.011 µM
Structure (SMILES): O=C(NO)c1ccc2nc(-c3ccc(-c4ccc(/C=N/O)cc4)cc3)[nH]c2c1 [Example 193, N-hydroxy-2-{4′-[(E)-(hydroxyimino)methyl]biphenyl-4-yl}-1H-benzimidazole-6-carboxamide]

Continued, compound first:

Structure (SMILES): O=C(NO)c1ccc2nc(-c3ccc4c(c3)CCO4)[nH]c2c1 [Example 96, 2-(2,3-dihydro-1-benzofuran-5-yl)-N-hydroxy-1H-benzimidazole-6-carboxamide]
- IC50 (HDAC2): 58 µM
- IC50 (HDAC6; [3]): 0.0052 µM
- IC50 (HDAC6; [2]): 0.0052 µM
- IC50 (HDAC8): 0.22 µM
- IC50 (HDAC3): 1.3 µM
- IC50 (HDAC1): 5 µM

Structure (SMILES): O=C(NO)c1ccc2nc(-c3cccs3)[nH]c2c1 [Example 98, N-hydroxy-2-thiophen-2-yl-1H-benzimidazole-6-carboxamide]
- IC50 (HDAC2): 24 µM
- IC50 (HDAC6; [3]): 0.007 µM
- IC50 (HDAC6; [2]): 0.007 µM
- IC50 (HDAC8): 0.29 µM
- IC50 (HDAC3): 1.9 µM
- IC50 (HDAC1): 4.4 µM

Structure (SMILES): CN1CCN(Cc2ccc(-c3nc4ccc(C(=O)NO)cc4[nH]3)cc2)CC1 [Example 207, N-hydroxy-2-{4-[(4-methylpiperazin-1-yl)methyl]phenyl}-1H-benzimidazole-6-carboxamide]
- IC50 (HDAC2): 7.8 µM
- IC50 (HDAC6; [3]): 0.007 µM
- IC50 (HDAC6; [2]): 0.007 µM
- IC50 (HDAC8): 1.8 µM
- IC50 (HDAC3): 0.25 µM
- IC50 (HDAC1): 0.7 µM

Structure (SMILES): CC(C)Oc1ccc(-c2nc3ccc(C(=O)NO)cc3[nH]2)cc1 [Example 97, N-hydroxy-2-[4-(1-methylethoxy)phenyl]-1H-benzimidazole-6-carboxamide]
- IC50 (HDAC2): 33 µM
- IC50 (HDAC6; [3]): 0.012 µM
- IC50 (HDAC6; [2]): 0.012 µM
- IC50 (HDAC8): 0.26 µM
- IC50 (HDAC3): 2.4 µM
- IC50 (HDAC1): 5.7 µM

Structure (SMILES): CCN(CC)CCOc1ccc(-c2nc3ccc(C(=O)NO)cc3[nH]2)cc1 [Example 125, 2-{4-[2-(diethylamino)ethoxy]phenyl}-N-hydroxy-1H-benzimidazole-6-carboxamide]
- IC50 (HDAC6; [2]): 0.014 µM

Structure (SMILES): COc1c(C)cc(-c2nc3cc(C(=O)NO)ccc3n2C)cc1C [Example 228, N-hydroxy-2-(4-methoxy-3,5-dimethylphenyl)-1-methyl-1H-benzimidazole-5-carboxamide]
- IC50 (HDAC2): 20 µM
- IC50 (HDAC6; [3]): 0.0035 µM
- IC50 (HDAC6; [2]): 0.0035 µM
- IC50 (HDAC8): 0.1 µM
- IC50 (HDAC3): 0.216 µM
- IC50 (HDAC1): 2 µM

Structure (SMILES): COc1ccc(-c2ccc(-c3nc4ccc(C(=O)NO)cc4[nH]3)o2)cc1OC [Example 174, 2-[5-(3,4-dimethoxyphenyl)furan-2-yl]-N-hydroxy-1H-benzimidazole-6-carboxamide]
- IC50 (HDAC6; [2]): 0.0047 µM

Structure (SMILES): CCc1ccc(-c2nc3ccc(C(=O)NO)cc3[nH]2)cc1 [Example 109, 2-(4-ethylphenyl)-N-hydroxy-1H-benzimidazole-6-carboxamide]
- IC50 (HDAC2): 165 µM
- IC50 (HDAC6; [3]): 0.046 µM
- IC50 (HDAC6; [2]): 0.046 µM
- IC50 (HDAC8): 1.2 µM
- IC50 (HDAC3): 2.2 µM
- IC50 (HDAC1): 6.5 µM

Structure (SMILES): O=C(NO)c1ccc2nc(-c3ccc4c(c3)OCCO4)[nH]c2c1 [Example 11, 2-(2,3-dihydro-1,4-benzodioxin-6-yl)-N-hydroxy-1H-benzimidazole-6-carboxamide]
- IC50 (HDAC6; [2]): 0.11 µM

Structure (SMILES): COc1cccc(-c2nc3ccc(C(=O)NO)cc3[nH]2)c1O [Example 85, N-hydroxy-2-(2-hydroxy-3-methoxyphenyl)-1H-benzimidazole-6-carboxamide]
- IC50 (HDAC6; [2]): 0.013 µM

Structure (SMILES): O=C(NO)c1ccc2nc(-c3ccccc3-c3ccccc3)[nH]c2c1 [Example 119, 2-biphenyl-2-yl-N-hydroxy-1H-benzimidazole-6-carboxamide]
- IC50 (HDAC2): 29 µM
- IC50 (HDAC6; [3]): 0.014 µM
- IC50 (HDAC6; [2]): 0.014 µM
- IC50 (HDAC8): 0.71 µM
- IC50 (HDAC3): 2.8 µM
- IC50 (HDAC1): 4 µM

— patent US10512634B2, “Benzimidazole derivates useful as inhibitors of mammalian histone deacetylase activity” (KANCERA AB, priority 2015, dated 2019)
